Measured values reported in patent US10023564B2, “G protein-coupled receptor kinase 2 inhibitors and methods for use of the same” (THE REGENTS OF THE UNIVERSITY OF MICHIGAN, priority 2014, dated 2018).
pIC50: −log10 of the molar value.

Assays:
[1] = biological target: GRK2 (Homo sapiens (Human), UniProt P25098); assay: GRK2 kinetic assay (phosphorylation of bROS or tubulin, phosphorimaging); assay type: biochemical; settings: 50 nM GRK, 5 μM ATP, 5 min reaction
Procedure: The low salt concentration and DDM were used to maximize GRK activity and disrupt small molecule aggregates from forming, respectively. […] Data was analyzed and inhibition curves were fit via GraphPad Prism.

[2] = biological target: ROCK1 (Homo sapiens (Human), UniProt Q13464); assay: Rho-associated coiled-coil kinase (ROCK) assay, ADP-Glo system; assay type: biochemical; settings: 0.1 μg ROCK1, 1 μg S6K substrate, 100 μM ATP, 60 min
Chain of ROCK1 (Q13464 whole entry, species assumed): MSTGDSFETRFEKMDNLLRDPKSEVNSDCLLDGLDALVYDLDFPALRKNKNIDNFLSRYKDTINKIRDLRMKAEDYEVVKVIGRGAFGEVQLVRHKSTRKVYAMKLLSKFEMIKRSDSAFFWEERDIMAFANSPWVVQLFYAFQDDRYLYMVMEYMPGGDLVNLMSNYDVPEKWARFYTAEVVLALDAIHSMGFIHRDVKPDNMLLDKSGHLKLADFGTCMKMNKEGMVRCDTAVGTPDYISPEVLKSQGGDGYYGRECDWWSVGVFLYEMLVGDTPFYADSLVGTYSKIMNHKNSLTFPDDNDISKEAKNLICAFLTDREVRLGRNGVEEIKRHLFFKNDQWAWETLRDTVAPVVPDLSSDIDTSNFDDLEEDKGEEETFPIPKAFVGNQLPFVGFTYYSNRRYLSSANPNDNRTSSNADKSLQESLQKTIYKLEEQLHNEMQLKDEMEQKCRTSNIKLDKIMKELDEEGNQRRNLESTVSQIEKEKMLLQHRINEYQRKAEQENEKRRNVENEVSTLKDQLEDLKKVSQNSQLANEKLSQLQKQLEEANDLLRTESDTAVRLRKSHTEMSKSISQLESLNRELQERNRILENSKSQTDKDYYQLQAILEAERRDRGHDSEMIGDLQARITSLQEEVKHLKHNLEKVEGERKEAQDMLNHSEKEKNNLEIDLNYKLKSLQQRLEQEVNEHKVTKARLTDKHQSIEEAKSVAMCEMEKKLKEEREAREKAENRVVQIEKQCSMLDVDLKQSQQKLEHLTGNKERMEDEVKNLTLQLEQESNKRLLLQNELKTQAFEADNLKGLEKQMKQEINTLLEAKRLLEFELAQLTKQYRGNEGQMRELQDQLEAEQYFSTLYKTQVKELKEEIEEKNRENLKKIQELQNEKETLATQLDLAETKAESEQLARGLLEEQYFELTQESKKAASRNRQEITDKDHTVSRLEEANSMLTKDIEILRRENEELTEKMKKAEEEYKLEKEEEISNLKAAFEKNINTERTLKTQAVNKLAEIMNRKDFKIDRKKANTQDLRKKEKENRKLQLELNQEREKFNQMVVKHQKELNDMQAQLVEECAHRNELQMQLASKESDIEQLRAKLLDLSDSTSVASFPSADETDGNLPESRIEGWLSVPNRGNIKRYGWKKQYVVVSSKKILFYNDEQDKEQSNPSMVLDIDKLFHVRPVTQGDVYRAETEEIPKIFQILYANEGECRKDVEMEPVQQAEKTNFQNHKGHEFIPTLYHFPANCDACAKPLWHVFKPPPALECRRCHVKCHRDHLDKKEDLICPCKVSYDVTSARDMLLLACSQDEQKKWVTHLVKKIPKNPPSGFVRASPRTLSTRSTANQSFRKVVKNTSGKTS
Procedure: Rho-associated coiled-coil kinase (ROCK) assays were performed with the ADP-Glo system using 0.1 μg ROCK1 and 1 μg S6K substrate, and 100 μM ATP for 60 min prior to addition of ADP-GLO Reagent, and allowed to incubate for an additional 40 min prior to the addition of the Kinase Detection Reagent and imaging on a PHERASTAR system.

Chain of GRK2 (P25098 whole entry, species assumed): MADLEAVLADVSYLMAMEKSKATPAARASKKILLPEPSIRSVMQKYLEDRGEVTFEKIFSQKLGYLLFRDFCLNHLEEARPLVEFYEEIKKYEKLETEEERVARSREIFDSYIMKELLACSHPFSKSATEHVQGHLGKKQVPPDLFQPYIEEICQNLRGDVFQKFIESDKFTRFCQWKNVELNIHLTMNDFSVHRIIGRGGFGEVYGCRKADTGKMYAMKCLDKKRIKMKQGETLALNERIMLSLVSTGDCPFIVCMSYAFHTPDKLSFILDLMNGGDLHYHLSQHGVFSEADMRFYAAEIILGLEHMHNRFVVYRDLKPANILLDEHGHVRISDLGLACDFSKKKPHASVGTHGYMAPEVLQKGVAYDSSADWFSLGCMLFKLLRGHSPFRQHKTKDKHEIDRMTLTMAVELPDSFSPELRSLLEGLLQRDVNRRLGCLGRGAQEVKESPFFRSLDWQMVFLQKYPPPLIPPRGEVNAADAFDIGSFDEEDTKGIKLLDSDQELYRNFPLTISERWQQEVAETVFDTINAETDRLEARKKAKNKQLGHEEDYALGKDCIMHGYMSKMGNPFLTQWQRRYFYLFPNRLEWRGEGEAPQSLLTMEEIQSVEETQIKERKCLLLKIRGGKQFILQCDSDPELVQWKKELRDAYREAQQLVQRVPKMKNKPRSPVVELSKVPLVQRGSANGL

Row | Structure (SMILES) | pIC50 [1] | pIC50 [2]
1 | COC(=O)C1(NC(=O)c2cc(C3NC(=O)NC(C)=C3C(=O)Nc3ccc4[nH]ncc4c3)ccc2F)CCCCC1 (stereo not drawn) [Example E23, methyl 1-(5-(5-((1H-indazol-5-yl)carbamoyl)-6-methyl-2-oxo-1,2,3,4-tetrahydropyrimidin-4-yl)-2-fluorobenzamido)cyclohexanecarboxylate] | 6.09 | –
2 | C#CCN(Cc1ccco1)C(=O)Cc1cc(C2NC(=O)NC(C)=C2C(=O)Nc2ccc3[nH]ncc3c2)ccc1F (stereo not drawn) [Example E35, 4-(4-fluoro-3-(2-((furan-2-ylmethyl)(prop-2-yn-1-yl)amino)-2-oxoethyl)phenyl)-N-(1H-indazol-5-yl)-6-methyl-2-oxo-1,2,3,4-tetrahydropyrimidine-5-carboxamide] | 6.02 | –
3 | COc1cccc(OC)c1CNC(=O)c1cc(C2NC(=O)NC(C)=C2C(=O)Nc2ccc3[nH]ncc3c2)ccc1F (stereo not drawn) [Example E11, 4-(3-((2,6-dimethoxybenzyl)carbamoyl)-4-fluorophenyl)-N-(1H-indazol-5-yl)-6-methyl-2-oxo-1,2,3,4-tetrahydropyrimidine-5-carboxamide] | – | < 5.00
4 | CC1=C(C(=O)Nc2ccc3[nH]ncc3c2)C(c2ccc(F)c(C(=O)NCc3c(C(F)(F)F)cccc3C(F)(F)F)c2)NC(=O)N1 (stereo not drawn) [Example E17, 4-(3-((2,6-bis(trifluoromethyl)benzyl)carbamoyl)-4-fluorophenyl)-N-(1H-indazol-5-yl)-6-methyl-2-oxo-1,2,3,4-tetrahydropyrimidine-5-carboxamide] | – | < 5.00
5 | CC1=C(C(=O)Nc2ccc3[nH]ncc3c2)C(c2ccc(F)c(C(=O)NCCc3c(C)cccc3C)c2)NC(=O)N1 (stereo not drawn) [Example E14, 4-(3-((2,6-dimethylphenethyl)carbamoyl)-4-fluorophenyl)-N-(1H-indazol-5-yl)-6-methyl-2-oxo-1,2,3,4-tetrahydropyrimidine-5-carboxamide] | – | 6.54
6 | CC1=C(C(=O)Nc2ccc3[nH]ncc3c2)C(c2ccc(F)c(C(=O)NCCc3ccncc3)c2)NC(=O)N1 (stereo not drawn) [Example E07, 4-(4-fluoro-3-((2-(pyridin-4-yl)ethyl)carbamoyl)phenyl)-N-(1H-indazol-5-yl)-6-methyl-2-oxo-1,2,3,4-tetrahydropyrimidine-5-carboxamide] | – | < 4.00
7 | CC1=C(C(=O)Nc2ccc3[nH]ncc3c2)C(c2ccc(F)c(CC(=O)NCc3c(C)cccc3C)c2)NC(=O)N1 (stereo not drawn) [Example E28, 4-(3-(2-((2,6-dimethylbenzyl)amino)-2-oxoethyl)-4-fluorophenyl)-N-(1H-indazol-5-yl)-6-methyl-2-oxo-1,2,3,4-tetrahydropyrimidine-5-carboxamide] | – | 6.35
8 | COc1cccc(OC)c1CNC(=O)Cc1cc(C2NC(=O)NC(C)=C2C(=O)Nc2ccc3[nH]ncc3c2)ccc1F (stereo not drawn) [Example E30, 4-(3-(2-((2,6-dimethoxybenzyl)amino)-2-oxoethyl)-4-fluorophenyl)-N-(1H-indazol-5-yl)-6-methyl-2-oxo-1,2,3,4-tetrahydropyrimidine-5-carboxamide] | – | 6.70
9 | CC1=C(C(=O)Nc2ccc3[nH]ncc3c2)C(c2ccc(F)c(C(=O)NCc3c(Cl)cccc3Cl)c2)NC(=O)N1 (stereo not drawn) [Example E09, 4-(3-((2,6-dichlorobenzyl)carbamoyl)-4-fluorophenyl)-N-(1H-indazol-5-yl)-6-methyl-2-oxo-1,2,3,4-tetrahydropyrimidine-5-carboxamide] | – | 5.17
10 | CC1=C(C(=O)Nc2ccc3[nH]ncc3c2)C(c2ccc(F)c(C(=O)NCc3c(C)cccc3C)c2)NC(=O)N1 (stereo not drawn) [Example E10, 4-(3-((2,6-dimethylbenzyl)carbamoyl)-4-fluorophenyl)-N-(1H-indazol-5-yl)-6-methyl-2-oxo-1,2,3,4-tetrahydropyrimidine-5 carboxamide] | – | 5.24
11 | CC1=C(C(=O)Nc2ccc3[nH]ncc3c2)C(c2ccc(F)c(C(=O)NCc3cc(C(F)(F)F)cc(C(F)(F)F)c3)c2)NC(=O)N1 (stereo not drawn) [Example E13, 4-(3-((3,5-bis(trifluoromethyl)benzyl)carbamoyl)-4-fluorophenyl)-N-(1H-indazol-5-yl)-6-methyl-2-oxo-1,2,3,4-tetrahydropyrimidine-5-carboxamide] | – | 5.72
12 | CC1=C(C(=O)Nc2ccc3[nH]ncc3c2)C(c2ccc(F)c(CC(=O)NCc3c(C(F)(F)F)cccc3C(F)(F)F)c2)NC(=O)N1 (stereo not drawn) [Example E29, 4-(3-(2-((2,6-bis(trifluoromethyl)benzyl)amino)-2-oxoethyl)-4-fluorophenyl)-N-(1H-indazol-5-yl)-6-methyl-2-oxo-1,2,3,4-tetrahydropyrimidine-5-carboxamide] | – | 6.40

Now from value to compound:

Row | pIC50 [1] | pIC50 [2] | Structure (SMILES)
13 | – | 7.68 | CC1=C(C(=O)Nc2ccc3[nH]ncc3c2)C(c2ccc(F)c(C(=O)NCc3cccc(F)c3)c2)NC(=O)N1 (stereo not drawn) [Example E04, 4-(4-fluoro-3-((3-fluorobenzyl)carbamoyl)phenyl)-N-(1H-indazol-5-yl)-6-methyl-2-oxo-1,2,3,4-tetrahydropyrimidine-5-carboxamide]
14 | – | 6.72 | CNC(=O)c1cc(C2NC(=O)NC(C)=C2C(=O)Nc2ccc3[nH]ncc3c2)ccc1F (stereo not drawn) [Example E12, 4-(4-fluoro-3-(methylcarbamoyl)phenyl)-N-(1H-indazol-5-yl)-6-methyl-2-oxo-1,2,3,4-tetrahydropyrimidine-5-carboxamide]
15 | – | 7.96 | CC1=C(C(=O)Nc2ccc3[nH]ncc3c2)C(c2ccc(F)c(C(=O)NCc3ccccn3)c2)NC(=O)N1 (stereo not drawn) [Example E01, 4-(4-fluoro-3-((pyridin-2-ylmethyl)carbamoyl)phenyl)-N-(1H-indazol-5-yl)-6-methyl-2-oxo-1,2,3,4-tetrahydropyrimidine-5-carboxamide]
16 | – | 7.30 | COc1ccc(CNC(=O)c2cc(C3NC(=O)NC(C)=C3C(=O)Nc3ccc4[nH]ncc4c3)ccc2F)cc1 (stereo not drawn) [Example E06, 4-(4-fluoro-3-((4-methoxybenzyl)carbamoyl)phenyl)-N-(1H-indazol-5-yl)-6-methyl-2-oxo-1,2,3,4-tetrahydropyrimidine-5-carboxamide]
17 | – | 7.16 | CC1=C(C(=O)Nc2ccc3[nH]ncc3c2)C(c2ccc(F)c(C(=O)NCc3ccccc3)c2)NC(=O)N1 (stereo not drawn) [Example E16, 4-(3-(benzylcarbamoyl)-4-fluorophenyl)-N-(1H-indazol-5-yl)-6-methyl-2-oxo-1,2,3,4-tetrahydropyrimidine-5-carboxamide]
18 | – | 7.11 | CC1=C(C(=O)Nc2ccc3[nH]ncc3c2)C(c2ccc(F)cc2)NC(=O)N1 (stereo not drawn) [GSK180736A, reference compound]
19 | – | 7.64 | CC1=C(C(=O)Nc2ccc3[nH]ncc3c2)C(c2ccc(F)c(C(=O)NCCc3ccccn3)c2)NC(=O)N1 (stereo not drawn) [Example E03, 4-(4-fluoro-3-((2-(pyridin-2-yl)ethyl)carbamoyl)phenyl)-N-(1H-indazol-5-yl)-6-methyl-2-oxo-1,2,3,4-tetrahydropyrimidine-5-carboxamide]
20 | – | 6.82 | CC1=C(C(=O)Nc2ccc3[nH]ncc3c2)C(c2ccc(F)c(C(=O)NCc3ncccc3C)c2)NC(=O)N1 (stereo not drawn) [Example E15, 4-(4-fluoro-3-(((3-methylpyridin-2-yl)methyl)carbamoyl)phenyl)-N-(1H-indazol-5-yl)-6-methyl-2-oxo-1,2,3,4-tetrahydropyrimidine-5-carboxamide]
21 | – | 7.01 | COc1cccc(CNC(=O)c2cc(C3NC(=O)NC(C)=C3C(=O)Nc3ccc4[nH]ncc4c3)ccc2F)c1 (stereo not drawn) [Example E18, 4-(4-fluoro-3-((3-methoxybenzyl)carbamoyl)phenyl)-N-(1H-indazol-5-yl)-6-methyl-2-oxo-1,2,3,4-tetrahydropyrimidine-5-carboxamide]
